Source: patent US20050096350A1, “Halo substituted benzo[b]thiophenes as therapeutic agents” (priority 2003, published 2005)

Target: T1, PI3Kγ (purified recombinant p101/p110γ protein) (Homo sapiens, UniProt P48736)
T1 construct: HA; made in house; host or cells: Spodoptera frugiperda Sf9 cells (baculovirus coinfection)
Assay: PI3Kγ in vitro kinase assay
Type: biochemical
Conditions: 20 μM ATP, 25 μM PIP2, G protein β1/γ2 subunits
Description: Spodtera frugiperda cells, grown in ESF921 media, were coinfected with baculovirus expressing a glu-tagged p101 and baculovirus expressing an HA-tagged […], at a 3:1 ratio of p101 baculovirus to p110γ baculovirus. Sf9 cells were grown to 1×10^7 total cells/mL in 10 L bioreactors and harvested 48-72 hours post infection. Samples of infected cells were then tested for expression of p101/p110γ PI3 kinase by immunoprecipitation and Western Blot analysis methods (see below).
To purify PI3Kγ, 4 volumes of room temperature hypotonic lysis buffer (1 mM MgCl2, 1 mM DTT, 5 mM EGTA, 1 mM Pefabloc, 0.5 μM aprotinin, 5 μM leupeptin, 2 μM pepstatin, 5 μM E64, pH 8) per gram of cell paste, was poured onto frozen cell pellets with stirring, then lysed in a nitrogen “bomb” at 400 psi (599HC T316, Parr Instrument Co, Moline, Ill.). NaCl was added to 150 mM, and sodium cholate was added to 1% and mixed for another 45 minutes. The lysates were clarified by centrifugation for 25 minutes at 14,000 rpm. The lysates were then loaded over anti-glu-linked Protein-G Sepaharose beads (Covance Research Products, Richmond, Calif.) using 20 mL resin/50 g cell paste. The column was washed with 15 volumes of wash buffer (1 mM DTT, 0.2 mM EGTA, 1 mM Pefabloc, 0.5 μM aprotinin, 5 μM leupeptin, 2 μM pepstatin, 5 μM E64, 150 mM NaCl, 1% sodium cholate, pH 8). PI3Kγ was eluted with 6 column volumes of wash buffer that contain 100 μg/mL of a peptide that competes for binding of the glu tag. The column fractions with the eluted protein (determined by taking OD280 readings) were collected and dialyzed in 0.2 mM EGTA, 1 mM DTT, 1 mM Pefabloc, 5 μM leupeptin, 0.5% sodium cholate, 150 mM NaCl, and 50% glycerol, pH 8. The fractions were stored at −80° C. until further use.
Spodtera frugiperda cells were coinfected with baculovirus expressing a glu-tagged G protein β1 and baculovirus expressing a G protein β2, at a 1:1 ratio of glu-tagged G protein β1 baculovirus to G protein β2 baculovirus. Sf9 cells are grown in 10 L bioreactors and harvested 48-72 hours post infection. Samples of infected cells were tested for G protein β1/β2 expression by Western Blot analysis, as described below. Cell lysates were homogenized and loaded onto a column of glu-tagged beads as in Biological Example 1 and competed off the column with a glu peptide and processed as described in Biological Example 1.
The inhibitory properties of the compounds in Table 1 were assayed in an in vitro PI3K assay. In a 96-well polypropylene plate, each well was spotted with 2 μL of 50 times the desired final concentration of compound in DMSO. Purified recombinant p101/p110γ protein (0.03 μg; ˜2.7 nM) and G protein β1/γ2 subunits (0.09 μg; ˜57.7 nM) for each reaction was combined in the assay buffer (30 mM HEPES, 100 mM NaCl, 1 mM EGTA, and 1 mM DTT). ATP and [γ-^32P-ATP] (0.09 μCi) were added to this mixture so that the final ATP concentration in the reaction was 20 μM. Lipid micelles were formed by sonicating phosphatidylinositol-4,5-diphosphate (PIP2), phosphatidylethanolamine (PE), and Na-cholate in the assay buffer for 10 minutes, adding MgCl2 and incubating on ice for 20 minutes, for final concentrations of 25 μM PIP2, 300 μM PE, 0.02% Na-cholate, and 10 mM MgCl2 in the reaction. The reactions were started by adding equal volumes lipid and enzyme mixture in a total volume of 50 μL, allowed to run for 20 minutes at room temperature, and stopped with 100 μL 75 mM H3PO4. The lipid product was transferred to a glass fiber filter plate and washed with 75 mM H3PO4 several times. The presence of radioactive lipid product (PIP3) was measured by adding Wallac Optiphase mix to each well and counting in a Wallac 1450 Trilux plate reader (PerkinElmer Life Sciences Inc., Boston, Mass. 02118). The IC50 for each compound tested is reported in μM in the Tables above.

T1 sequence (P48736 whole entry, species assumed): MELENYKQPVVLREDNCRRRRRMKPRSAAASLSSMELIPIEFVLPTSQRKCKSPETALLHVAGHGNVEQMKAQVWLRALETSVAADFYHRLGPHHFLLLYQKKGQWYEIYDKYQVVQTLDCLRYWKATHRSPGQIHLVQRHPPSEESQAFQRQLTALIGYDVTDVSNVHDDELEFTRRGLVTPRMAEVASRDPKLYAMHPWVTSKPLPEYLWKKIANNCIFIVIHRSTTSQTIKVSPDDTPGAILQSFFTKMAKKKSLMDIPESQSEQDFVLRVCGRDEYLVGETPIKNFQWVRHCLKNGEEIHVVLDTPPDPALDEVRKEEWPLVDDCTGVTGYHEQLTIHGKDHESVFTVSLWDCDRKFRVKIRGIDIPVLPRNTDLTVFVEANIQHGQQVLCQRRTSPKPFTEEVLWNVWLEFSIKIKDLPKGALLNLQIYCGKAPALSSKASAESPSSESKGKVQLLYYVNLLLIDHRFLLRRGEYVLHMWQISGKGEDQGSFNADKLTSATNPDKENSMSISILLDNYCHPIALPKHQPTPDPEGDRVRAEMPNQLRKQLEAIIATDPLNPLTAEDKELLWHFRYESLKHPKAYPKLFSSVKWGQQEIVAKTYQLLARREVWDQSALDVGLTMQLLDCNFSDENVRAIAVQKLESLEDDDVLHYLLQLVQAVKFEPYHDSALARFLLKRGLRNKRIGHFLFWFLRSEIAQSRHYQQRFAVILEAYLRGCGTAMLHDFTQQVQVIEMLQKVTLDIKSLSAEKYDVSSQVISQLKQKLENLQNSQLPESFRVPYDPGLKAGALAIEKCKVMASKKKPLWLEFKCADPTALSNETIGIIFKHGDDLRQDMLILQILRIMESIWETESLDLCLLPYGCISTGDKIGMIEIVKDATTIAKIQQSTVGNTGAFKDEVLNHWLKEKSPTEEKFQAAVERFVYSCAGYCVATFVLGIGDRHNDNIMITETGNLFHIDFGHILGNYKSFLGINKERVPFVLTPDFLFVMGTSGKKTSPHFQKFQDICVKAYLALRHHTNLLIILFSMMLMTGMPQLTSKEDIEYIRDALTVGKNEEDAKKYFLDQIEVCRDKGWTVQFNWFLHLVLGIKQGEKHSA
T1 sequence (Q8WYR1 whole entry partner, species assumed): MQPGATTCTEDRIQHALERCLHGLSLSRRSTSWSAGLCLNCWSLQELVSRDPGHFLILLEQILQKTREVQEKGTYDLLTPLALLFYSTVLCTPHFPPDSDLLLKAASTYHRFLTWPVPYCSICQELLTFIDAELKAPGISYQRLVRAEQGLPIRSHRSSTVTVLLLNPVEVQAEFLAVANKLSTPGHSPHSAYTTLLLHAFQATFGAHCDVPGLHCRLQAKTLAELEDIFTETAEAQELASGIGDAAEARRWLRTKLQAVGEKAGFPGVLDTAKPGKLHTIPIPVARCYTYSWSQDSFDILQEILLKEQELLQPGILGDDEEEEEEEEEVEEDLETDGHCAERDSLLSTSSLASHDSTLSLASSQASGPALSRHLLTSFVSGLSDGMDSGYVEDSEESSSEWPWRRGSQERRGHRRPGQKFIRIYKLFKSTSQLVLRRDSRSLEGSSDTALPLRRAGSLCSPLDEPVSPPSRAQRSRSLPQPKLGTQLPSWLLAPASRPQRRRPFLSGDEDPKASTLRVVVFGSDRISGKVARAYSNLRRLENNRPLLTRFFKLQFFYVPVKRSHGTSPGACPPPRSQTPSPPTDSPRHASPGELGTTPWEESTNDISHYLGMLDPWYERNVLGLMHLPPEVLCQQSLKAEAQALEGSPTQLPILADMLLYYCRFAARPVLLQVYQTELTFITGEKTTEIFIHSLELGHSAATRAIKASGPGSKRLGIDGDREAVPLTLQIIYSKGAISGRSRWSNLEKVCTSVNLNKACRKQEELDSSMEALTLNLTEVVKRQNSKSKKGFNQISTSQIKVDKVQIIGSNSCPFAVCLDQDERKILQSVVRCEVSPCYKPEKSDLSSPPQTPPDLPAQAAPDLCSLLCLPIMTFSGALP

Row | Compound | IC50 [nM] | other results
1 | 3-(4-Chloro-phenylsulfanyl)-6-fluoro-5-methoxy-benzo[b]thiophene-2-carboxylic acid (1H-tetrazol-5-yl)-amide [Example 20] | 45.5 | –
2 | 3-(4-Cyclohexyl-phenylsulfanyl)-4-fluoro-5-methoxy-benzo[b]thiophene-2-carboxylic acid (1H-tetrazol-5-yl)-amide [Example 37] | 505 | –
3 | 3-Cyclohexylsulfanyl-6-fluoro-5-methyl-benzo[b]thiophene-2-carboxylic acid (1H-tetrazol-5-yl)-amide [Example 41] | – | IC50 (table b291): 12 nM
4 | 3-[2-(Acetyl-methyl-amino)-1-phenyl-propylsulfanyl]-4-fluoro-5-methoxy-benzo[b]thiophene-2-carboxylic acid (1H-tetrazol-5-yl)-amide [Example 30] | 20000 | –
5 | 4-Fluoro-5-methoxy-3-(3-trifluoromethyl-phenylsulfanyl)-benzo[b]thiophene-2-carboxylic acid (1H-tetrazol-5-yl)-amide [Example 29] | 11000 | –
6 | 6-Fluoro-5-methoxy-3-phenoxy-benzo[b]thiophene-2-carboxylic acid iminomethyl-amide [Example 3] | 24.5 | –
7 | COc1cc2c(O[C@H]3CCC[C@@H](C)C3)c(C(=O)Nc3nn[nH]n3)sc2cc1F (racemic) [Example 9, cis-(±)-6-Fluoro-5-methoxy-3-(3-methyl-cyclohexyloxy)-benzo[b]thiophene-2-carboxylic acid (2H-tetrazol-5-yl)-amide] | 3.8 | –
8 | COc1cc2c(O[C@H]3CCC[C@H](C)C3)c(C(=O)Nc3nn[nH]n3)sc2cc1F (racemic) [Example 17, trans-(±)-6-Fluoro-5-methoxy-3-(3-methyl-cyclohexyloxy)-benzo[b]thiophene-2-carboxylic acid (2H-tetrazol-5-yl)-amide] | – | IC50 (table b197): 35 nM
9 | COc1cc2c(Oc3ccc(Cl)cc3)c(C(=O)Nc3nn[nH]n3)sc2cc1F [Example 1, 3-(4-Chloro-phenoxy)-6-fluoro-5-methoxy-benzo[b]thiophene-2-carboxylic acid (2H-tetrazol-5-yl)-amide] | 76.5 | –
10 | COc1cc2c(Oc3ccc(OC4CCCC4)cc3)c(C(=O)Nc3nn[nH]n3)sc2cc1F [Example 2, 3-(4-Cyclopentyloxy-phenoxy)-6-fluoro-5-methoxy-benzo[b]thiophene-2-carboxylic acid (2H-tetrazol-5-yl)-amide] | 15 | –
11 | COc1cc2c(Oc3ccc(C4CCCCC4)cc3)c(C(=O)Nc3nn[nH]n3)sc2cc1F [Example 4, 3-(4-Cyclohexyl-phenoxy)-6-fluoro-5-methoxy-benzo[b]thiophene-2-carboxylic acid (2H-tetrazol-5-yl)-amide] | 33.5 | –
12 | CCc1cccc(Oc2c(C(=O)Nc3nn[nH]n3)sc3cc(F)c(OC)cc23)c1 [Example 5, 3-(3-Ethyl-phenoxy)-6-fluoro-5-methoxy-benzo[b]thiophene-2-carboxylic acid (2H-tetrazol-5-yl)-amide] | 62.5 | –
13 | COc1cc2c(Oc3ccc(C(C)C)cc3)c(C(=O)Nc3nn[nH]n3)sc2cc1F [Example 6, 6-Fluoro-3-(4-isopropyl-phenoxy)-5-methoxy-benzo[b]thiophene-2-carboxylic acid (2H-tetrazol-5-yl)-amide] | 13.5 | –
14 | COc1cc2c(OC3CCCCC3)c(C(=O)Nc3nn[nH]n3)sc2cc1F [Example 7, 3-Cyclohexyloxy-6-fluoro-5-methoxy-benzo[b]thiophene-2-carboxylic acid (2H-tetrazol-5-yl)-amide] | 10.5 | –
15 | COc1cc2c(OC3CCCCCC3)c(C(=O)Nc3nn[nH]n3)sc2cc1F [Example 8, 3-Cycloheptyloxy-6-fluoro-5-methoxy-benzo[b]thiophene-2-carboxylic acid (2H-tetrazol-5-yl)-amide] | 3.4 | –
16 | COc1cc2c(OC3CC(C)CC(C)(C)C3)c(C(=O)Nc3nn[nH]n3)sc2cc1F (stereo not drawn) [Example 12, 6-Fluoro-5-methoxy-3-(3,3,5-trimethyl-cyclohexyloxy)-benzo[b]thiophene-2-carboxylic acid (2H-tetrazol-5-yl)-amide] | 5.3 | –
17 | COc1cc2c(OC3CCCC(C)(C)C3)c(C(=O)Nc3nn[nH]n3)sc2cc1F (stereo not drawn) [Example 13, 3-(3,3-Dimethyl-cyclohexyloxy)-6-fluoro-5-methoxy-benzo[b]thiophene-2-carboxylic acid (2H-tetrazol-5-yl)-amide] | 6.5 | –
18 | COc1cc2c(OC3CCOCC3)c(C(=O)Nc3nn[nH]n3)sc2cc1F [Example 14, 6-Fluoro-5-methoxy-3-(tetrahydro-pyran-4-yloxy)-benzo[b]thiophene-2-carboxylic acid (2H-tetrazol-5-yl)-amide] | 62.5 | –
19 | COc1cc2c(OC3CC(C)CC(C)C3)c(C(=O)Nc3nn[nH]n3)sc2cc1F (stereo not drawn) [Example 15, 3-(3,5-Dimethyl-cyclohexyloxy)-6-fluoro-5-methoxy-benzo[b]thiophene-2-carboxylic acid (2H-tetrazol-5-yl)-amide] | 2.2 | –
20 | COc1cc2c(OC3CCC3)c(C(=O)Nc3nn[nH]n3)sc2cc1F [Example 16, 3-Cyclobutoxy-6-fluoro-5-methoxy-benzo[b]thiophene-2-carboxylic acid (2H-tetrazol-5-yl)-amide] | 32.5 | –
21 | COc1cccc(Sc2c(C(=O)Nc3nnn[nH]3)sc3cc(F)c(OC)cc23)c1 [Example 18, 6-Fluoro-5-methoxy-3-(3-methoxy-phenylsulfanyl)-benzo[b]thiophene-2-carboxylic acid (1H-tetrazol-5-yl)-amide] | 470 | –
22 | COc1cc2c(Sc3ccccc3)c(C(=O)Nc3nnn[nH]3)sc2cc1F [Example 19, 6-Fluoro-5-methoxy-3-phenylsulfanyl-benzo[b]thiophene-2-carboxylic acid (1H-tetrazol-5-yl)-amide] | 32.5 | –
23 | COc1ccc2sc(C(=O)Nc3nnn[nH]3)c(SC3CCCCC3)c2c1F [Example 21, 3-Cyclohexylsulfanyl-4-fluoro-5-methoxy-benzo[b]thiophene-2-carboxylic acid (1H-tetrazol-5-yl)-amide] | 580 | –
24 | COc1ccc2sc(C(=O)Nc3nnn[nH]3)c(Sc3ccc(O)cc3)c2c1F [Example 22, 4-Fluoro-3-(4-hydroxy-phenylsulfanyl)-5-methoxy-benzo[b]thiophene-2-carboxylic acid (1H-tetrazol-5-yl)-amide] | 2760 | –
25 | COc1ccc2sc(C(=O)Nc3nnn[nH]3)c(Sc3cccc(O)c3)c2c1F [Example 23, 4-Fluoro-3-(3-hydroxy-phenylsulfanyl)-5-methoxy-benzo[b]thiophene-2-carboxylic acid (1H-tetrazol-5-yl)-amide] | 3640 | –
26 | COC(=O)c1cccc(Sc2c(C(=O)Nc3nnn[nH]3)sc3ccc(OC)c(F)c23)c1 [Example 24, 3-[4-Fluoro-5-methoxy-2-(1H-tetrazol-5-ylcarbamoyl)-benzo[b]thiophen-3-ylsulfanyl]-benzoic acid methyl ester] | 4200 | –
27 | COc1ccc2sc(C(=O)Nc3nnn[nH]3)c(Sc3cccc(C(=O)O)c3)c2c1F [Example 25, 3-[4-Fluoro-5-methoxy-2-(1H-tetrazol-5-ylcarbamoyl)-benzo[b]thiophen-3-ylsulfanyl]-benzoic acid] | 2390 | –
